The results in this text go back to patent publication US12180192B2, “Modulators of THR-β and methods of use thereof” (ALIGOS THERAPEUTICS, INC., priority 2019, dated 2024).

Where two headings read alike, the source gives them in different places.

In the experiment the test system is CPT1A gene expression in Huh-7 cells. Nature of the experiment: Huh-7 differential gene expression, CPT1A RT-qPCR (Assay 3). The format is cell-based. As to conditions: Table 6, Huh-7 cells, CPT1A, 24 hr treatment; for EC50: read-out: Activity category Assay 3 EC50; for Emax: read-out: Activity category Assay 3 Emax. The method, then:
Huh-7 Differential Gene Expression (Assay 3)
Fetal bovine serum (FBS) was incubated with washed resin (50 mg resin/mL FBS; resin weight is dry weight of resin prior to washing) for 5 hr at room temperature on a rotor. The FBS was separated from the resin via centrifugation and incubated with new, washed resin for 18 h at room temperature on a rotor.
Cell Culture and Drug Treatment
Huh-7 cells were cultured in DMEM (10-013-CM, Corning) supplemented with 10% FBS and 1% Pen-Strep at 37° C. under 5% C02. When 70-80% confluence was reached, the cells were removed by trypsinization. The medium was aspirated from the cell culture dish, the cell monolayer was washed with 1×PBS, and 0.05% trypsin, 0.53 mM EDTA (25-052-CV, Corning) solution was added to the dish. After 3 min incubation, the cells were detached completely by repeatedly pipetting solution onto the monolayer. Equal volume of DMEM supplemented with 10% rFBS and 1% Pen-Strep (TH-depleted DMEM) was added to the dish to inactivate the trypsin. The cell suspension was centrifuged at 350×g at room temperature for 3 min. The supernatant was aspirated out and the cell pellet was resuspended in TH-depleted DMEM. […] After 24 hr incubation, the media was replaced with treatment media. All compounds were serially diluted in DMSO and final concentrations were reached by dilution in TH-depleted DMEM (0.1% DMSO). The cells were incubated in treatment media for 24 hr. Treatments were performed in biological duplicates.
After 24 hr in treatment media, the cells were lysed directly on the culture plates and cDNA was produced using the TaqMan™ Fast Advanced Cells-to-CT™ Kit (A35374, Invitrogen) and following the manufacturer's protocol. RT-qPCR for CPT1A (Hs00912671_m1) and two housekeeping genes, ACTB (Hs01060665_g1) and TFG (Hs02832013_g1), was performed using TaqMan™ Fast Advanced Master Mix. RT-qPCR reactions were run on the qTOWER^3 84 G (Analytik Jena) in technical duplicates.
ΔRn values were obtained from the qPCRsoft384 1.0 software and CPT1A gene expression was quantified via the 2-ΔΔCt method. Dose-response curves were generated using GraphPad Prism 8 using four parameter logistic equation without top constraint to derive EC50 and Emax.
Background: Real-time PCR tracks product formation cycle by cycle.

The term EC50 denotes the concentration needed to bring the measured effect to its halfway point. In the case of `CC(c1cc(Oc2c(Cl)cc(-n3nc(N)c(=O)[nH]c3=O)cc2Cl)n[nH]c1=O)C1CC(F)(F)C1` (single isomer, unassigned) [Compound 61-A, 6-amino-2-[3,5-dichloro-4-([5-[1-(3,3-difluorocyclobutyl)ethyl]-6-oxo-1H-pyridazin-3-yl]oxy)phenyl]-4H-1,2,4-tri-azine-3,5-dione], the “Activity category Assay 3 Emax” value was “B (Emax≥50%, and <75%)”. In addition, the EC50 (Homo sapiens, Huh-7, 24 h) is less than 100 nM.
Regarding `CC(c1cc(Oc2c(Cl)cc(-n3nc(N)c(=O)[nH]c3=O)cc2Cl)n[nH]c1=O)C1CC(F)(F)C1` (single isomer, unassigned) [Compound 61-B, 6-amino-2-[3,5-dichloro-4-([5-[1-(3,3-difluorocyclobutyl)ethyl]-6-oxo-1H-pyridazin-3-yl]oxy)phenyl]-4H-1,2,4-tri-azine-3,5-dione], the “Activity category Assay 3 Emax” value is on record as “A (Emax≥75%)” and the EC50 is greater than 100 nM.
For orientation: Emax means the greatest response seen or fitted, relative to the assay's reference. For `C[C@H]1C[C@H](c2cc(Oc3c(Cl)cc(-n4nc(N)c(=O)[nH]c4=O)cc3Cl)n[nH]c2=O)C1` (single isomer, unassigned) [Compound 86-A, 6-Amino-2-(3,5-dichloro-4-((5-((1r,3r)-3-methylcyclobutyl)-6-oxo-1,6-dihydropyridazin-3-yl)oxy)phenyl)-1,2,4-triazine-3,5(2H,4H)-dione], under “Homo sapiens, Huh-7, 24 h”, the EC50 was less than 100 nM and the Emax lay in the range of 50 to 75%.
Consider `CC(c1ccccc1)c1cc(Oc2c(Cl)cc(-n3nc(N)c(=O)[nH]c3=O)cc2Cl)n[nH]c1=O` (single isomer, unassigned) [Compound 164, 6-Amino-2-(3,5-dichloro-4-((6-oxo-5-(1-phenylethyl)-1,6-dihydropyridazin-3-yl)oxy)phenyl)-1,2,4-triazine-3,5(2H,4H)-dione], for which, for the setting “Homo sapiens, Huh-7, 24 h”, the EC50 is less than 100 nM and the Emax is 50 to 75%.
For the compound `CC(C)c1c[nH]c2ccc(Oc3c(Cl)cc(-n4nc(C#N)c(=O)[nH]c4=O)cc3Cl)cc12` [Compound 1, 2-[3,5-dichloro-4-[(3-isopropyl-1H-indol-5-yl)oxy]-phenyl]-3,5-dioxo-4H-1,2,4-tri-azine-6-carbonitrile], under “Homo sapiens, Huh-7, 24 h”, the EC50 is 100 to 1000 nM and the Emax was greater than 75%.
As to `CC(C)c1cc(Oc2c(Cl)cc(-c3nn(C)c(=O)[nH]c3=O)cc2Cl)n[nH]c1=O` [Compound 16, 6-[3,5-dichloro-4-[(5-isopropyl-6-oxo-1H-pyridazin-3-yl)oxy]phenyl]-2-methyl-4H-1,2,4-triazine-3,5-dione], under “Homo sapiens, Huh-7, 24 h”, the 50% effective concentration (EC50) lay within 100 to 1000 nM and the Emax is less than 50%.
In the case of `CC(C)c1c[nH]c2ccc(Oc3c(Cl)cc(-n4nc(C#N)c(=O)[nH]c4=O)cc3Cl)nc12` [Compound 18], for the setting “Homo sapiens, Huh-7, 24 h”, the concentration giving a half-maximal response (EC50) was greater than 100 nM and the Emax is greater than 75%.
Take `Cc1cc(-n2nc(C#N)c(=O)[nH]c2=O)cc(C)c1Cc1ccc2[nH]cc(C(C)C)c2n1` [Compound 31, 2-[4-[(3-isopropyl-1H-pyrrolo[3,2-b]pyridin-5-yl)methyl]-3,5-dimethyl-phenyl]-3,5-dioxo-1,2,4-triazine-6-carbonitrile]: for the setting “Homo sapiens, Huh-7, 24 h”, the EC50 was in the range of 100 to 1000 nM and the Emax was greater than 75%.
As for `CCC(C)c1cc(Oc2c(Cl)cc(-n3nc(N)c(=O)[nH]c3=O)cc2Cl)n[nH]c1=O` (stereo not shown) [Compound 39-A], the “Activity category Assay 3 Emax” value was “B (Emax≥50%, and <75%)”; the EC50 is less than 100 nM.
`CCC(C)c1cc(Oc2c(Cl)cc(-n3nc(N)c(=O)[nH]c3=O)cc2Cl)n[nH]c1=O` (stereo not shown) [Compound 39-B]: the “Activity category Assay 3 Emax” value was “A (Emax≥75%)” and the 50% effective concentration (EC50) was less than 100 nM.
Turning to `Nc1nn(-c2cc(Cl)c(Oc3cc(C4CCC4)c(=O)[nH]n3)c(Cl)c2)c(=O)[nH]c1=O` [Compound 40, 6-amino-2-[3,5-dichloro-4-[(5-cyclobutyl-6-oxo-1H-pyridazin-3-yl)oxy]phenyl]-4H-1,2,4-triazine-3,5-dione], under “Homo sapiens, Huh-7, 24 h”, the concentration giving a half-maximal response (EC50) is less than 100 nM and the Emax is greater than 75%.
Take `Cc1cc(-n2nc(N)c(=O)[nH]c2=O)cc(C)c1Cc1ccc(O)c(-c2ccccc2)n1` [Compound 43, 6-amino-2-[4-[(5-hydroxy-6-phenylpyridin-2-yl)-methyl]-3,5-dimethylphenyl]-4H-1,2,4-triazine-3,5-dione]: under “Homo sapiens, Huh-7, 24 h”, the 50% effective concentration (EC50) was less than 100 nM and the maximal effect (Emax) is greater than 75%.
The corresponding values for `CC(C)c1c[nH]c2nnc(Oc3c(Cl)cc(-n4nc(C#N)c(=O)[nH]c4=O)cc3Cl)cc12` [Compound 52, 2-[3,5-dichloro-4-([5-isopropyl-7H-pyrrolo[2,3-c]pyridazin-3-yl]oxy)phenyl]-3,5-dioxo-4H-1,2,4-triazine-6-carbonitrile] are greater than 100 nM and greater than 75%.
Consider `Cc1cc(-n2ncc(=O)[nH]c2=O)cc(C)c1Cc1ccc2[nH]cc(C(C)C)c2n1` [Compound 54, 2-[4-[(3-isopropyl-1H-pyrrolo[3,2-b]pyridine-5-yl)methyl]-3,5-dimethyl-phenyl]-1,2,4-triazine-3,5-dione], for which, where the note is “Homo sapiens, Huh-7, 24 h”, the EC50 was less than 100 nM and the Emax is greater than 75%.
With `Cc1cc(-n2nc(N)c(=O)[nH]c2=O)cc(C)c1Cc1ccc2[nH]cc(C(C)C)c2n1` [Compound 55, 6-amino-2-[4-[(3-isopropyl-1H-pyrrolo[3,2-b]pyridin-5-yl)methyl]-3,5-dimethyl-phenyl]-1,2,4-triazine-3,5-dione], under “Homo sapiens, Huh-7, 24 h”, the EC50 is less than 100 nM and the Emax was greater than 75%.
As for `Nc1nn(-c2cc(Cl)c(Oc3cc(-c4ccc5ccccc5c4)c(=O)[nH]n3)c(Cl)c2)c(=O)[nH]c1=O` [Compound 67, 6-amino-2-(3,5-dichloro-4-[[5-(naphthalen-2-yl)-6-oxo-1H-pyridazin-3-yl]oxy]phenyl)-4H-1,2,4-triazine-3,5-dione], where the note is “Homo sapiens, Huh-7, 24 h”, the EC50 is greater than 100 nM and the Emax was greater than 75%.
For the compound `Nc1nn(-c2cc(Cl)c(Oc3n[nH]c(=O)cc3-c3ccc4ccccc4c3)c(Cl)c2)c(=O)[nH]c1=O` [Compound 67-A, 6-amino-2-(3,5-dichloro-4-((4-(naphthalen-2-yl)-6-oxo-1,6-dihydropyridazin-3-yl)oxy)phenyl)-1,2,4-triazine-3,5(2H,4H)-dione], under “Homo sapiens, Huh-7, 24 h”, the EC50 lay in the range of 100 to 1000 nM and the Emax is less than 50%.
On to `Cc1cccc(-c2cc(Oc3c(Cl)cc(-n4nc(N)c(=O)[nH]c4=O)cc3Cl)n[nH]c2=O)c1` [Compound 70, 6-Amino-2-(3,5-dichloro-4-((6-oxo-5-(m-tolyl)-1,6-dihydropyridazin-3-yl)oxy)phenyl)-1,2,4-triazine-3,5(2H,4H)-dione], for which, for the setting “Homo sapiens, Huh-7, 24 h”, the EC50 was less than 100 nM and the maximum response (Emax) lay in the range of 50 to 75%.
On to `Nc1nn(-c2cc(Cl)c(Oc3cc(-c4ccc5c(c4)CCCC5)c(=O)[nH]n3)c(Cl)c2)c(=O)[nH]c1=O` [Compound 72, 6-Amino-2-(3,5-dichloro-4-((6-oxo-5-(5,6,7,8-tetrahydro-naphthalen-2-yl)-1,6-dihydro-pyridazin-3-yl)oxy)phenyl)-1,2,4-triazine-3,5(2H,4H)-dione], for which, under “Homo sapiens, Huh-7, 24 h”, the EC50 was 100 to 1000 nM and the Emax is greater than 75%.
`Nc1nn(-c2cc(Cl)c(Oc3n[nH]c(=O)cc3-c3ccc4c(c3)CCCC4)c(Cl)c2)c(=O)[nH]c1=O` [Compound 72-A, 6-amino-2-(3,5-dichloro-4-[[6-oxo-4-(5,6,7,8-tetrahydronaphthalen-2-yl)-1H-pyridazin-3-yl]oxy]phenyl)-4H-1,2,4-triazine-3,5-dione]: under “Homo sapiens, Huh-7, 24 h”, the EC50 lay within 100 to 1000 nM and the maximal response (Emax) is greater than 75%.
